This is an account of results in publication PMC6588613, “Lupin (Lupinus spp.) seeds exert anthelmintic activity associated with their alkaloid content” (Scientific Reports, 2019).

Assay [1] addresses C. elegans nicotine-sensitive AChR (Cel-N-AChR, acr-16) (Caenorhabditis elegans, UniProt P48180). The experiment in a line: Xenopus laevis oocyte two-electrode voltage-clamp, Cel-N-AChR. In kind it is cell-based. The source says: (§1) The lupanine and alkaloid extracts from lupin seeds were perfused on defolliculated X. laevis oocytes (Ecocyte Bioscience, Dortmund, Germany) expressing either the C. elegans nicotine-sensitive nAChR subtype (Cel-N-nAChR, encoded by acr-16[53]), or its levamisole-sensitive counterpart (Cel-L-nAChR, encoded by unc-38, unc-63, unc-29, lev-1 and lev-8[53]). In the lack of H. contortus nicotine-sensitive AChR described, the sole levamisole-sensitive nAChR subtype 1 (Hco-L-nAChR1, encoded by unc-29.1, unc-38, unc-63 and acr-8[29]) from H. contortus was also expressed. Expression of recombinant nAChRs was achieved by microinjection of cRNAs into the oocyte cytoplasm and two-electrode voltage-clamp recordings were carried out as previously described.
Acetylcholine was applied first to check for the presence of functional nAChRs and for current normalization in presence of lupanine or alkaloid extracts.
(§2) Dose-response data were modelled as a log-logistic regression with two parameters, i.e. the curve slope and the associated median excitatory (EC50) or inhibitory (IC50) concentration using the drc package v3.0-1[58]. To account for differences in maximal response values, a third parameter was added for electrophysiology data modelling.
For orientation: Two-electrode voltage clamp is typically applied to oocytes expressing channels or transporters.

Assay [2] deals with multidrug-resistant H. contortus infective larvae. The assay is described as follows: Automated Larval Migration Assay (ALMA), multidrug-resistant isolate. The assay is classed as cell-based, Haemonchus contortus. As to conditions: 250 µg/mL, ± s.d. As to the method:
(§3) Because of the scarcity of fractionated alkaloidic compounds (2.7 to 12.8 mg), their anthelmintic effect on infective H. contortus larvae was measured using ALMA. This technique relies on larval auto-fluorescence generated through ultraviolet excitation[42],[43]. Every alkaloidic compound was incubated for 4 h at 20 °C with 7,500 H. contortus infective larvae each. Larvae were then passed through a 20 μm sieve and left for a 60 s stabilization time before migration into the spectrofluorimeter cuvette. Cumulative fluorescence resulting from larval migration into the cuvette and correlating the total number of larvae[43] was recorded during 5 min. Each set of experiment was performed in triplicate at a concentration of 250 µg/mL but for compound 2 (150 µg/mL). Levamisole 10 µM was used as a positive control.

Assay [3] deals with drug-susceptible H. contortus infective larvae. The experiment in a line: Automated Larval Migration Assay (ALMA), drug-susceptible isolate. The assay is classed as cell-based, Haemonchus contortus. As to conditions: for larval migration as percentage of control larval migration (ALMA): drug-susceptible larvae, 250 µg/mL (compound 2: 150 µg/mL), 4 h, ± s.d.
From the text: Parasite material was maintained by the INRA animal parasite nematode collection. Two H. contortus isolates that were. susceptible or resistant to every licensed anthelmintic compound in France (benzimidazoles, levamisole, macrocyclic lactones) were used. […] To establish whether lupin effect was conserved across GIN species, a fully susceptible French T. circumcincta isolate[51] was used. […] For every test, infective larvae were exsheathed with 0.5% hypochlorite solution and rinsed thrice with water before subsequent incubation in 5 mg/mL solutions of either crude maceration, alkaloidic fraction or non-alkaloidic fraction, levamisole (10 µM) or water, for 18 h at 20 °C. At the end of the incubation period, 100 L3 were deposited on migration plates with 20 µm mesh at 38 °C for 2 h as described elsewhere. […] Dose-response assays were run with six control replicates and four replicates by concentration tested (0, 5, 7.5 and 10 mg/mL for E063 alkaloids and 0, 2, 4, 6 and 8 mg/mL for ENERGY alkaloids).
as §3

The next assay has as its system mammalian nAChRs. To be noted: cited from earlier work.
For assay [4], the system named is multidrug-resistant Haemonchus contortus infective larvae. The assay is described as follows: Larval migration inhibition assay (LMIA), multidrug resistant isolate. In kind it is cell-based. As to conditions: levamisole 10 µM.
Assay [5] has as its system multidrug resistant H. contortus isolate. The assay is classed as in vivo, Haemonchus contortus. To be noted: for in vivo Faecal Egg Reduction Test value: 14 days after treatment; for eggs/g 14 days after treatment: before treatment 11400 (levamisole), 1450 (ivermectin).
The test system of assay [6] is fully susceptible H. contortus isolate.
The subject of assay [7] is drug-susceptible Haemonchus contortus infective larvae. The experiment in a line: Larval migration inhibition assay (LMIA), fully susceptible isolate. In kind it is cell-based.
Assay [8] has as its system fully susceptible French T. circumcincta isolate. The assay is described as follows: microbe, parasite or virus in culture. As to conditions: Teladorsagia circumcincta, read-out: IC50 (ALMA).
Assay [9] concerns susceptible Teladorsagia circumcincta infective larvae. The assay is described as follows: Larval migration inhibition assay (LMIA), T. circumcincta. As to conditions: lyophilized extracts 5 mg/mL, levamisole 10 µM, read-out: Average inhibitory effect (mean). In kind it is cell-based.
From the text: The inhibitory potential of each variety was computed as: p=1−No.treatedmigratedlarvae/AverageNo.controlmigratedlarvae
Assay [10] relates to multidrug resistant H. contortus isolate. The assay is described as follows: In vitro drug susceptibility of the multidrug resistant isolate (assay not given). The assay is classed as cell-based, Haemonchus contortus.
The test system of assay [11] is C. elegans levamisole-sensitive AChR (Cel-L-AChR). The experiment in a line: Xenopus laevis oocyte two-electrode voltage-clamp, Cel-L-AChR. The assay is classed as cell-based, Caenorhabditis elegans.
C. elegans levamisole-sensitive AChR (Cel-L-AChR), sequence (Q27218 32-507): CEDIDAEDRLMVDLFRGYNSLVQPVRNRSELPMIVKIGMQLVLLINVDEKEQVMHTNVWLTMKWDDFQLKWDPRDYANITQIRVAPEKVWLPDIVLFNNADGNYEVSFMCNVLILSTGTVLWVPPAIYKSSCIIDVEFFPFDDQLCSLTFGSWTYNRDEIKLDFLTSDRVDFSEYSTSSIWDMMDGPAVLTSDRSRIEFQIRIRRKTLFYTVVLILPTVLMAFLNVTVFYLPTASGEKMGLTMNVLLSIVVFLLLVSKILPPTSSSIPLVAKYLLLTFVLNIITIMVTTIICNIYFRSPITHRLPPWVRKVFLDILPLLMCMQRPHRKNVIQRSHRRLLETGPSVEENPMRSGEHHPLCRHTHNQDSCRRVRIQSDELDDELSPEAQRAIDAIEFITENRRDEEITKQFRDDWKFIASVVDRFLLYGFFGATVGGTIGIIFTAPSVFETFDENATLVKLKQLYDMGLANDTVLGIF
C. elegans levamisole-sensitive AChR (Cel-L-AChR), sequence (P48181 27-493, further chain): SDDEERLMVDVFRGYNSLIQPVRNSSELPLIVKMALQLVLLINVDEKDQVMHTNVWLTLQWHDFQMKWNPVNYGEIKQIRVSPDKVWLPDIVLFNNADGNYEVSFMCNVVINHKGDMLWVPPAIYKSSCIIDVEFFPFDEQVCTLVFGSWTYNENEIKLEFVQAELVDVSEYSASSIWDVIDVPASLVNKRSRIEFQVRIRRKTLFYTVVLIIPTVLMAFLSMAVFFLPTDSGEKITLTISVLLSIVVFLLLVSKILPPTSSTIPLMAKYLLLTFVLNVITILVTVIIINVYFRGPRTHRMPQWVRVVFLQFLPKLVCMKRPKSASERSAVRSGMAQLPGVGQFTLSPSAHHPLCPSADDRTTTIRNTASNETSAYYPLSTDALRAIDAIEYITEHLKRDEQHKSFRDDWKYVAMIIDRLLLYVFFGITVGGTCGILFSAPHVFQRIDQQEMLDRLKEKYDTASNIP
C. elegans levamisole-sensitive AChR (Cel-L-AChR), sequence (Q23022 17-511, further chain): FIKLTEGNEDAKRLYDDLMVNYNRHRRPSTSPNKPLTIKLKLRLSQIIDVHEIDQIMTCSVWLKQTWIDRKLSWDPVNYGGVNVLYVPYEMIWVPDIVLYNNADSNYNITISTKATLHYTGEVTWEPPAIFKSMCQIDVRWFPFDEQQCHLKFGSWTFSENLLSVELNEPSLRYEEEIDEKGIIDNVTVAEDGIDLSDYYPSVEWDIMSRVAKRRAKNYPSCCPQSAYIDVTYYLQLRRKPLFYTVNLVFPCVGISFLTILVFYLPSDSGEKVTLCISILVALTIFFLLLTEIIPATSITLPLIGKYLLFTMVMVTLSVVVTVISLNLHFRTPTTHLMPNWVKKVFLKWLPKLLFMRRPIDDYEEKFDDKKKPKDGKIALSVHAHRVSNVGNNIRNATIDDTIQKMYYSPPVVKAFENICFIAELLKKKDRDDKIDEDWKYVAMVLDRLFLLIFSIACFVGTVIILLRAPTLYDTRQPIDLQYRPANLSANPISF
C. elegans levamisole-sensitive AChR (Cel-L-AChR), sequence (Q9N587 24-502, further chain): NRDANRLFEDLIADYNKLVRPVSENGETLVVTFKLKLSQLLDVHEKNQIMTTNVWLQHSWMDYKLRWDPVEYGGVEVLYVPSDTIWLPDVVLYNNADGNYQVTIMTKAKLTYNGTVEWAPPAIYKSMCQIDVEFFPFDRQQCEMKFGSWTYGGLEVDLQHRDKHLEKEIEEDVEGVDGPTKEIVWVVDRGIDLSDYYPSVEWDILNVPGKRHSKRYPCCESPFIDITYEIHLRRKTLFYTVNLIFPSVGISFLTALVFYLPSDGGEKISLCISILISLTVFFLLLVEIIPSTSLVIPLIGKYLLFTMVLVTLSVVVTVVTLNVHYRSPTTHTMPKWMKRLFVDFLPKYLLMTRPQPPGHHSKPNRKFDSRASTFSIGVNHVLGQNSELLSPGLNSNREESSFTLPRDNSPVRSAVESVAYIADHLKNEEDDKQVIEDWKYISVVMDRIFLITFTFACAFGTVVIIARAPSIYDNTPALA
C. elegans levamisole-sensitive AChR (Cel-L-AChR), sequence (Q93329 entry or part of it, further chain): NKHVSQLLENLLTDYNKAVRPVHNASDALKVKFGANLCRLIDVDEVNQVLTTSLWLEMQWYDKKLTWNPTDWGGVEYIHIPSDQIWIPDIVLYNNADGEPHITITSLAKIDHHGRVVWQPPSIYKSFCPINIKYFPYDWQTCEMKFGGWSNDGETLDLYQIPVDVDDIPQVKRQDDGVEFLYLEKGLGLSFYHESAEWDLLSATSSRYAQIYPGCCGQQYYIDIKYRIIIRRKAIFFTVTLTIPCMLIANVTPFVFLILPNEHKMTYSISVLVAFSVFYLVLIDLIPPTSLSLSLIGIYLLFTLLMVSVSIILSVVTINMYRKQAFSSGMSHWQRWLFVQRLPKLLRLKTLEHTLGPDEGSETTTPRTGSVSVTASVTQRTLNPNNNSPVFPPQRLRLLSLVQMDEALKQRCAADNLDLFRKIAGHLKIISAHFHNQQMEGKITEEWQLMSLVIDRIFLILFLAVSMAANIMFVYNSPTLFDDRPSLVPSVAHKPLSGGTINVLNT
From the text: as §1, §2

In assay [12] the target is H. contortus levamisole-sensitive AChR (Hco-L-AChR-1) (Haemonchus contortus, UniProt A9XX24+D6MYE9+D6MYF3+D6MYF4). The experiment in a line: Xenopus laevis oocyte two-electrode voltage-clamp, Hco-L-AChR-1. The assay is classed as cell-based.
H. contortus levamisole-sensitive AChR (Hco-L-AChR-1), sequence (D6MYE9 entry or part of it): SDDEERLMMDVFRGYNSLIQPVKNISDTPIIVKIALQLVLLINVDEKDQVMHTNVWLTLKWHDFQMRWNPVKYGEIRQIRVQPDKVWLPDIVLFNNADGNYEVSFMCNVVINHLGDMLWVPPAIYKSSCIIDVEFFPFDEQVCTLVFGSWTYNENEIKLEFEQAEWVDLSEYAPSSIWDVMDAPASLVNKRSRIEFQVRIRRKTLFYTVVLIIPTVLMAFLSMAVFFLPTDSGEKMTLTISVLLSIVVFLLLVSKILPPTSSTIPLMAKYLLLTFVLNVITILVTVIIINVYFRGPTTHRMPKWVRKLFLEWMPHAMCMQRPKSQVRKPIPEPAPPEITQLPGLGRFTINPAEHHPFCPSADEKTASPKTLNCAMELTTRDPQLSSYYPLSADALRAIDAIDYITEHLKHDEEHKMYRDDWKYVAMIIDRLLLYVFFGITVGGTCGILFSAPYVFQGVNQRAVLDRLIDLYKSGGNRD
H. contortus levamisole-sensitive AChR (Hco-L-AChR-1), sequence (D6MYF4 entry or part of it): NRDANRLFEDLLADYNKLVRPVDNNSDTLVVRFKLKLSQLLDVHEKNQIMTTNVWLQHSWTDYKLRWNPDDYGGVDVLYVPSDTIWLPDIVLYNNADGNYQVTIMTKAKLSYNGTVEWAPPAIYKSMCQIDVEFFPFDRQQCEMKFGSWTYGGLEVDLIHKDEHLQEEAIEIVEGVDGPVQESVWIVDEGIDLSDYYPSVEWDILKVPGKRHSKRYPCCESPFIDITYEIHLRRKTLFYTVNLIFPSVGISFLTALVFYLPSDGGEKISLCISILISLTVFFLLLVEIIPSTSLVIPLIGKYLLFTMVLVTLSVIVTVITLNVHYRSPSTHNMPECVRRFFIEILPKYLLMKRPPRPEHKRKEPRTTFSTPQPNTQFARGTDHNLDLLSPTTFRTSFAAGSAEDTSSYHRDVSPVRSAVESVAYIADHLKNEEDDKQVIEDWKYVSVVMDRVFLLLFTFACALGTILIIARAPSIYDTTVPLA
H. contortus levamisole-sensitive AChR (Hco-L-AChR-1), sequence (A9XX24 entry or part of it): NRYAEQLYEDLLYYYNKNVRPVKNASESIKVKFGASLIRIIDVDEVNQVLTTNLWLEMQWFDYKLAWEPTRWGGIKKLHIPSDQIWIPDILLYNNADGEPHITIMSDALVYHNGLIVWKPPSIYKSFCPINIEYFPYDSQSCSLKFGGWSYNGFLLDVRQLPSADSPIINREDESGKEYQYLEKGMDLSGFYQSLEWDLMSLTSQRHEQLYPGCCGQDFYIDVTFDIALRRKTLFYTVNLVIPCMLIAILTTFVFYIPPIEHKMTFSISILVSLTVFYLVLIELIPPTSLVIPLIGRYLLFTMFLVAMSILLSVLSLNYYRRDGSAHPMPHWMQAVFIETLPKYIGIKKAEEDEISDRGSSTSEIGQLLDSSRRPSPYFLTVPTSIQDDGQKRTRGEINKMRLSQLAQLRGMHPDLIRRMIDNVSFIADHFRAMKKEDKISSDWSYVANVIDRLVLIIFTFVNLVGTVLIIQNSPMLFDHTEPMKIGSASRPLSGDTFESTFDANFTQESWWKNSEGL
H. contortus levamisole-sensitive AChR (Hco-L-AChR-1), sequence (D6MYF3 entry or part of it): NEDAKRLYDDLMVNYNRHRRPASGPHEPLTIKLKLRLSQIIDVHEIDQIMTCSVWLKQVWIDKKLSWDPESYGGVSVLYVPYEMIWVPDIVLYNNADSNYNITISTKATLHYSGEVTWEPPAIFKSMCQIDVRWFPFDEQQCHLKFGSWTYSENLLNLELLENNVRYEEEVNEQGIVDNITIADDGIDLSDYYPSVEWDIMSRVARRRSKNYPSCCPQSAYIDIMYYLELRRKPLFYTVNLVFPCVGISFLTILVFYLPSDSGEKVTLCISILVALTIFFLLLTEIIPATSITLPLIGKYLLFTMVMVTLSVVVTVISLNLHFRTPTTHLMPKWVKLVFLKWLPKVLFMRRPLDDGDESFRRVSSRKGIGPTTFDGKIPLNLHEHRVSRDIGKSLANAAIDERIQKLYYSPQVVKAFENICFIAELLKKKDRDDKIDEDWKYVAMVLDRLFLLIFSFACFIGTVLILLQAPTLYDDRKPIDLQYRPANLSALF
From the text: as §1, §2

The subject of assay [13] is susceptible control H. contortus. The assay is described as follows: In vitro drug susceptibility of the susceptible control (assay not given). The assay is classed as cell-based. To be noted: Haemonchus contortus.

In brackets after ≈: the same amount, converted by molar mass. Like-named read-outs stand apart in the source and are kept apart here.

As usually defined, the IC50 is the point on the concentration scale where inhibition reaches its midpoint.

C. elegans nicotine-sensitive AChR (Cel-N-AChR, acr-16), sequence (P48180 20-498): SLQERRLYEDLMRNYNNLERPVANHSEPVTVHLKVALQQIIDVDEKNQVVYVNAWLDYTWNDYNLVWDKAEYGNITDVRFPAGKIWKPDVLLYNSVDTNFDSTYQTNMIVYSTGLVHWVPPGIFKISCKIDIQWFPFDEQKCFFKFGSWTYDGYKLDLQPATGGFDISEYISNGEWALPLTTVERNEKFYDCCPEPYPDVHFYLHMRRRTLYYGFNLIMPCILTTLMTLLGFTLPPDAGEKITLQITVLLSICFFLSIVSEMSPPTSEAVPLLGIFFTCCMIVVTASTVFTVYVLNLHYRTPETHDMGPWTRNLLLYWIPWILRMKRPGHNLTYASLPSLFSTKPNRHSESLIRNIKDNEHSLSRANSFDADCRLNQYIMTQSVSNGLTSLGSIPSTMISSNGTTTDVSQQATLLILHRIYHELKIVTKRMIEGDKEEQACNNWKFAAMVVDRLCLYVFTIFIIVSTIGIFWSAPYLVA

With `CC(=O)OCC[N+](C)(C)C` [Acetylcholine, acetylcholine], the EC50 is 21.7 ± 0.9 µM in assay [1] (EC50, acetylcholine alone) and 80.6 ± 27.5 µM in assay [1] (EC50 of acetylcholine with lupanine (300 µM), in the presence of 300 µM lupanine).
For `CC=C(C)C(=O)OC1CCN2C[C@@H]3C[C@@H](CN4C(=O)CCC[C@H]34)[C@@H]2C1` (stereo partly shown) [Compound 1, 13-angeloyloxy or 13-tigloyloxy-lupanine], the “larval migration as percentage of control (ALMA)” value in assay [2] was determined as 62.4%. Besides, the “larval migration as percentage of control larval migration (ALMA)” value in assay [3] is on record as 53.6%.
As to `O[C@@]12C[C@@H](CN3CCCC[C@H]31)[C@H]1CCCCN1C2` [Compound 4, 7-hydroxysparteine], the “larval migration as percentage of control larval migration (ALMA)” value in assay [3] stood at 76%.
In the case of `CC=C(C)C(=O)O[C@H]1CCN2C(=O)[C@@H]3C[C@@H](CN4C(=O)CCC[C@H]34)[C@@H]2C1` [Compound 5], the “larval migration as percentage of control larval migration (ALMA)” value in assay [3] is “did not significantly inhibit”.
As for `O=C(OC1CCN2C[C@@H]3C[C@@H](CN4C(=O)CCC[C@H]34)[C@@H]2C1)c1ccccc1` (stereo partly shown) [Compound 6], the “larval migration as percentage of control larval migration (ALMA)” value in assay [3] is reported as “did not significantly inhibit”.
As for `O=c1cccc2n1C[C@@H]1CNC[C@H]2C1` [cytisine], the IC50 with mammalian nAChRs is 0.14 µM.
Regarding `c1ccc([C@H]2CN3CCSC3=N2)cc1` [levamisole], the inhibition at 10 µM in assay [4] (Haemonchus contortus, H. contortus multidrug resistant, lyophilized extracts 5 mg/mL, read-out: Average inhibitory effect) was 30.5%; in [7] (Haemonchus contortus, H. contortus drug susceptible, lyophilized extracts 5 mg/mL, levamisole 10 µM, read-out: Average inhibitory effect), 99.5%; in [7] (Haemonchus contortus, susceptible H. contortus L3, levamisole 10 µM, extract 5 mg/mL, estimate ± s.e.m., read-out: mean inhibition of larval migration), 99.3%; in assay [9] it was 73.7%. Further, the “Percentage of migrating larvae” value in [4] (multidrug-resistant isolate, fractions 2.5 mg/mL, fractions 1 and 8 0.625 mg/mL, negative control 100) is recorded as 39.7%; in assay [7] (fully susceptible isolate, fractions 2.5 mg/mL, fractions 1 and 8 0.625 mg/mL, levamisole 10 µM, negative control 100), 12.1%. The “in vivo Faecal Egg Reduction Test value” in assay [5] turned out to be 31.6%. In addition, the “eggs/g 14 days after treatment” value in [5] is 7800 eggs/g. Besides, the “Faecal Egg Count reduction in vivo” value in assay [6] is reported as 100%. Further, the EC50 in [3] (Haemonchus contortus, fully susceptible isolate, read-out: in vitro EC50 (Automated Larval Migration inhibition Assay)) is 1.1 µM; in assay [10] (Haemonchus contortus), 15.6 µM. Also, the concentration for half-maximal inhibition (IC50) was determined as 1.61 µM in [7] (Haemonchus contortus, concentration response assay, susceptible H. contortus isolate) and 1.79 µM in assay [8].
Regarding `O=C1CCC[C@@H]2[C@H]3C[C@@H](CN12)[C@@H]1CCCCN1C3` [lupanine], the half-inhibitory concentration (IC50) in the assay with mammalian nAChRs is 5 µM; in assay [11] (read-out: IC50 on ACh-elicited currents, Cel-L-AChR, n = 5) it was 549 ± 64.1 µM; in assay [1] (n = 5, read-out: IC50 on ACh-elicited currents), 116 ± 9.7 µM; in assay [12] (Hco-L-AChR-1, n = 5, read-out: IC50 on ACh-elicited currents), 540 ± 90.2 µM. Also, the “decrease in maximal ACh-elicited current” value in [11] (300 µM lupanine, levamisole-sensitive receptors) is 38%. Moreover, the “drop-off in the maximum amplitude of ACh-elicited currents” value in assay [1] (300 µM lupanine) was 81%. Moreover, in assay [7] (concentration response assay, 0 to 3 mM, susceptible isolate, linear, highly variable), the “inhibition of the control migration” value was “less than 25%”. Further, in [12] (read-out: decrease in maximal ACh-elicited current), the inhibition at 300 µM was 38%.
`CSc1nc2cc(Cl)c(Oc3cccc(Cl)c3Cl)cc2[nH]1` [triclabendazole]: the values for the EC50 in assay [13] and in assay [10] (Haemonchus contortus) were 0.022 µg/mL (≈ 0.0612 µM) and 0.587 µg/mL, respectively.
As to ivermectin, in assay [5], the “in vivo Faecal Egg Reduction Test value” came to 67.8% and the “eggs/g 14 days after treatment” value is on record as 450 eggs/g. In [10], the EC50 stood at 0.055 µM.
